Patent publication US11261179B2, “Small molecules” (University of Dundee, priority 2017, dated 2022)

Assays:
[1] = system: HIF-1α / hydroxylated HIF-1α (Hdy-HIF-1α); experiment: Western blot of HIF-1α and Hdy-HIF-1α levels in HeLa cells; type: cell-based, Human
Procedure: (§1) For single time point treatment experiments, cells were transferred in 6-well plates with 5×10^5 cells per well in 2 ml media in order to achieve 80% confluence the following day. Stock concentrations of compounds were prepared by solubilizing the powder in 100% v/v DMSO to the final desired stock concentration.
(§2) On the day of treatment, all compound samples were prepared as 100-fold concentrated compound solution using DMEM just before treatment. The experiment samples (20 μL) were added to the 6 well plate containing 2 ml of media. The final DMSO concentration was 0.1% v/v. Cells were incubated at 37° C. and 5% CO2 for the desired time before harvesting.
(§3) For time dependent treatment, cells were transferred in 6-well plates with 3×10^5 cells per well in 2 ml media. Samples were prepared as detailed above or the single time point experiments. Treatment was conducted at given time points prior to harvest.
(§4) Cells were lysed in lysis buffer (20 mM Tris pH 8, 150 mM NaCl, 1% Triton x100) and a protease inhibitor cocktail (Roche) per 10 ml buffer. For protein extracts, the dishes were placed on ice. The media was aspirated and the tissue layer washed twice with ice-cold phosphate buffer saline (PBS). Lysis buffer (120 μl) was added and the cells detached from the surface with a cell scraper. After removal of the insoluble fraction by centrifugation, the protein concentration of the supernatant was determined by Pierce™ Coomassie (Bradford) Protein Assay Kit. Protein extracts were fractionated by SDS-PAGE on 4-12% Tris-Acetate NuPage® Novex® (Life Technologies) polyacrylamide gels and transferred to a nitrocellulose membrane using wet transfer. The membrane was then blocked with 5% w/v Bovine serum albumin (BSA) in Tris-buffered saline (TBS) with 0.1% w/v Tween-20. For detecting proteins the following primary antibodies in the given concentrations were used: anti-β-Actin (Cell Signaling Technology, 4970S, 13E5) 1:2000, anti-VHL (Cell Signaling Technology, #68547) 1:1000, anti-Hif-1α (BD Biosciences, 610959, clone 54) 1:1000, anti-hydroxy-HIF-1α (Hyp564) (Cell Signaling Techonology; #3434) 1:1000, anti-PHD2 (Bethyl Laboratories; A300-322A) 1:1000, anti-PHD3 (Bethyl Laboratories; A300-327A) 1:1000, anti-CRBN (Proteintech; 11435-1-AP) 1:1000.
(§5) Following incubation with a horseradish peroxidase-conjugated secondary antibody (Cell Signaling Technology), the signal was developed using enhanced chemiluminescence (ECL) Western Blotting Detection Kit (Amersham) on Amersham Hyperfilm ECL film (Amersham).
Band quantification was performed using ImageJ software and reported as relative amount as ratio of the each protein band relative to the lane's loading control. The values obtained were then normalized to 0.1% DMSO vehicle control.

[2] = target: pVHL19 (VCB complex: VHL with Elongin B and Elongin C) (Homo sapiens, UniProt P40337); experiment: ITC titration against VCB, short VHL isoform; type: binding; settings: for binding to VCB detected by ITC: ITC against VCB; for Kd / ΔG / ΔH / α (cooperativity/avidity) / −TΔS / n (stoichiometry): ITC; for Kd / ΔG / ΔH / α (cooperativity/avidity) / −TΔS: pVHL19; for n (stoichiometry): pVHL19, 25° C.
Chain of pVHL19 (VCB complex: VHL with Elongin B and Elongin C) (P40337 54-213): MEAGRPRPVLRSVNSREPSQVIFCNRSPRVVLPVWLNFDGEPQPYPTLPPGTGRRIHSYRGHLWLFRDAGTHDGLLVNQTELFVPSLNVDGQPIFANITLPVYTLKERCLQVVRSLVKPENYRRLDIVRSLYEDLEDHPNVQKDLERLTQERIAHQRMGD
Chain of pVHL19 (VCB complex: VHL with Elongin B and Elongin C) (Q15370 1-104 partner limits assumed): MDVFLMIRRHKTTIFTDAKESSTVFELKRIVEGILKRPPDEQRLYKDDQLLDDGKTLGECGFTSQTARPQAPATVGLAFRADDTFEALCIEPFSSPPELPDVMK
Chain of pVHL19 (VCB complex: VHL with Elongin B and Elongin C) (Q15369 17-112 partner limits assumed): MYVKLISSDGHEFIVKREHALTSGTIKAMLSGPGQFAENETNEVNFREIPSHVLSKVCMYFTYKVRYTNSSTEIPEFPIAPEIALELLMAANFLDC
Procedure: (§6) Titrations were performed on an ITC200 micro-calorimeter (GE Healthcare). […] The final DMSO concentration was 0.15% v/v. VBC protein experiments were carried out in a buffer containing 20 mM Bis-tris propane, 150 mM NaCl, 1 mM TCEP, 0.15% v/v DMSO, pH 7.4. The titrations consisted of 19 injections of 2 μL compounds solution (150 μM, in the syringe) at a rate of 2 s/μL at 120 s time intervals into the VCB protein solution (20 μM, in the cell). An initial injection of compound solution (0.4 μL) was made and discarded during data analysis. All experiments were performed at 25° C., whilst stirring the syringe at 600 rpm. The data were fitted to a single binding site model to obtain the stoichiometry n, the dissociation constant Kd and the enthalpy of binding ΔH using the Microcal LLC ITC200 Origin software provided by the manufacturer.

[3] = target: T1, pVHL30 (long isoform of VHL) (Homo sapiens, UniProt P40337); experiment: Western blot of VHL levels in HeLa cells; type: cell-based; settings: 1 μM, 10 h
T1 construct: endogenous in cells; host or cells: HeLa
T1 sequence (P40337 whole entry, canonical isoform): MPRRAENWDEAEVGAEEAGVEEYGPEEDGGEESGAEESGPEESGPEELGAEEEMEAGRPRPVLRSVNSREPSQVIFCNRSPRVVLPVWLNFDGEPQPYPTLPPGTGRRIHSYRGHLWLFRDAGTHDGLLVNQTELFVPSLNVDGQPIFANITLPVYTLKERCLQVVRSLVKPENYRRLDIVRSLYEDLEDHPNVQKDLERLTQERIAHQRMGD
Procedure: as §1, §2, §3
Cells were transferred in 6-well plates with 5×10^5 cells per well in 2 ml media in order to achieve 80% confluence the day after. At t=0, MLN4924 was added into the desired wells at 3 μM final concentration and 0.1% v/v of DMSO. DMSO (0.1% v/v final conc.) was added to the remaining wells in order to match identical conc. of vehicle in all wells. At t=3 h, MG 132 was added into the desired wells at 50 μM final conc. and 0.1% v/v of DMSO. DMSO (0.1% v/v final conc.) was added to the remaining wells in order to achieve the same conc. of vehicle in all the wells. […] DMSO (0.1% v/v final conc.) was added to the remaining wells in order to obtain the same conc. of vehicle in all the wells. The total final concentration of DMSO was therefore 0.3% v/v. Plates were incubated for 4 h at 37° C. and 5% CO2 before harvesting.
Cells were transferred in 6-well plates with 5×10^5 cells per well in 2 ml media in order to achieve 80% confluence the day after. […] Plates were incubated for the desired time at 37° C. and 5% CO2 before harvesting.
For this experiments, cells were transferred in 6-well plates with 5×10^5 cells per well in 2 ml media in order to achieve 80% confluence the day after. […] Plates were incubated for the desired time at 37° C. and 5% CO2 before harvesting.
as §4, §5
Band quantification was performed using ImageJ software and reported as relative amount as ratio of the each protein band relative to the lane's loading control. […]

[4] = target: VCB complex (Homo sapiens, UniProt P40337); experiment: Size exclusion chromatography of VCB complex formation; type: binding; settings: SEC; for shift of VCB peak / ternary complex formation: VCB 50 μM, compound 30 μM
Chain of VCB complex (P40337 54-213 limits assumed): as the sequence (P40337 54-213) above
Chain of VCB complex (Q15370 1-104 partner limits assumed): as the sequence (Q15370 1-104 partner limits assumed) above
Chain of VCB complex (Q15369 17-112 partner limits assumed): as the sequence (Q15369 17-112 partner limits assumed) above
Procedure: SEC experiments were carried out in a AKTA pure system (GE Healthcare) at room temperature. The oligomeric state of the VCB complex in solution was analyzed by gel filtration in a buffer containing 20 mM Bis-Tris (pH 7), 150 mM NaCl and 1 mM 1,4-dithiothreitol (DTT) using a Superdex 200 Increase 10/300 GL column (GE Healthcare) calibrated with globular proteins of known molecular weight (GE Healthcare, 28-4038-41/42). […] Sample volume for each injection was 200 μL, and the flow rate was 0.5 mL/min. Peak elution was monitored using ultraviolet absorbance at 280 nm.

[5] = target: pVHL30 (VCB complex) (Homo sapiens, UniProt P40337); experiment: ITC titration against VCB, long VHL isoform; type: binding
Chain of pVHL30 (VCB complex) (P40337 whole entry, canonical isoform): as the sequence (P40337 whole entry, canonical isoform) above
Chain of pVHL30 (VCB complex) (Q15370 1-104 partner limits assumed): as the sequence (Q15370 1-104 partner limits assumed) above
Chain of pVHL30 (VCB complex) (Q15369 17-112 partner limits assumed): as the sequence (Q15369 17-112 partner limits assumed) above
Procedure: as §6

`CC(=O)N[C@H](C(=O)N1C[C@H](O)C[C@H]1C(=O)NCc1ccc(-c2scnc2C)cc1)C(C)(C)C` [VH032, reference compound] was tested. Which “protein levels of Hdy-HIF-1α” value ([1]; HeLa, 1 μM, 10 h) did it give?
Its value is “completely ineffective”.

And the “concentration at which active in cells” value ([1]; cells)?
The value was ~100 µM.

For `Cc1ncsc1-c1ccc(CNC(=O)[C@@H]2C[C@@H](O)CN2C(=O)[C@@H](NC(=O)C2(C#N)CC2)C(C)(C)C)c(OCCOCCOCCOCCOCCOc2cc(-c3scnc3C)ccc2CNC(=O)[C@@H]2C[C@@H](O)CN2C(=O)[C@@H](NC(=O)C2(C#N)CC2)C(C)(C)C)c1` [CMP108, (2S,2′S,4R,4′R)—N,N′-((((3,6,9,12-tetraoxatetradecane-1,14-diyl)bis(oxy))bis(4-(4-methylthiazol-5-yl)-2,1-phenylene))bis(methylene))bis(1-((S)-2-(1-cyanocyclopropane-1-carboxamido)-3,3-dimethylbutanoyl)-4-hydroxypyrrolidine-2-carboxamide)], which “binding to VCB detected by ITC” value [2] is on record?
Its value is “data could not be fitted to a binding curve”.

Which Kd [2] does the source give for `Cc1ncsc1-c1ccc(CNC(=O)[C@@H]2C[C@@H](O)CN2C(=O)[C@@H](NC(=O)COCCOCCOCCOCCOCCOc2cc(-c3scnc3C)ccc2CNC(=O)[C@@H]2C[C@@H](O)CN2C(=O)[C@@H](NC(=O)C2(C#N)CC2)C(C)(C)C)C(C)(C)C)cc1` [CMP113, (2S,4R)-1-((S)-2-(tert-butyl)-20-(2-(((2S,4R)-1-((S)-2-(1-cyanocyclopropane-1-carboxamido)-3,3-dimethylbutanoyl)-4-hydroxypyrrolidine-2-carboxamido)methyl)-5-(4-methylthiazol-5-yl)phenoxy)-4-oxo-6,9,12,15,18-pentaoxa-3-azaicosanoyl)-4-hydroxy-N-(4-(4-methylthiazol-5-yl)benzyl)pyrrolidine-2-carboxamide] here?
Its Kd is 0.117 ± 0.025 µM.

What about the ΔG [2] of the same compound?
Its ΔG is -9.5 kcal/mol.

And the ΔH [2]?
Its ΔH is -6.4 ± 0.2 kcal/mol.

What about the “α (cooperativity/avidity)” value [2] of the same compound?
Its value is 1.7.

What about the “−TΔS” value [2] of the same compound?
Its value is -3.1 kcal/mol.

And the “n (stoichiometry)” value [2]?
The value was 0.934 ± 0.005.

For `Cc1ncsc1-c1ccc(CNC(=O)[C@@H]2C[C@H](O)CN2C(=O)[C@@H](NC(=O)COCCOCCOCCOCCOCCOCC(=O)N[C@H](C(=O)N2C[C@@H](O)C[C@H]2C(=O)NCc2ccc(-c3scnc3C)cc2)C(C)(C)C)C(C)(C)C)cc1` [CMP98, N^1,N^20-bis((S)-1-((2S,4S)-4-hydroxy-2-((4-(4-methylthiazol-5-yl)benzyl)carbamoyl)pyrrolidin-1-yl)-3,3-dimethyl-1-oxobutan-2-yl)-3,6,9,12,15,18-hexaoxaicosanediamide], which “binding to VCB detected by ITC” value [2] is on record?
Its value is “binding was not detected”.

And the “depletion/degradation of VHL (pVHL30)” value [3]?
Its value is “unable to induce degradation of VHL”.

And the “shift of VCB peak / ternary complex formation” value [4]?
Its value is “no shift”.

How did the Kd [2] turn out when `Cc1ncsc1-c1ccc(CNC(=O)[C@H]2C[C@@H](O)CN2C(=O)[C@H](NC(=O)COCCOCCOCCOCCOCC(=O)N[C@H](C(=O)N2C[C@H](O)C[C@H]2C(=O)NCc2ccc(-c3scnc3C)cc2)C(C)(C)C)C(C)(C)C)cc1` [CMP99, N^1—((R)-1-((2R,4R)-4-hydroxy-2-((4-(4-methylthiazol-5-yl)benzyl)carbamoyl)pyrrolidin-1-yl)-3,3-dimethyl-1-oxobutan-2-yl)-N^17—((S)-1-((2S,4R)-4-hydroxy-2-((4-(4-methylthiazol-5-yl)benzyl)carbamoyl)pyrrolidin-1-yl)-3,3-dimethyl-1-oxobutan-2-yl)-3,6,9,12,15-pentaoxaheptadecanediamide] was run?
The Kd was 0.146 ± 0.002 µM.

What about the ΔG [2] of the same compound?
Its ΔG is -9.33 ± 0.06 kcal/mol.

What about the ΔH [2] of the same compound?
Its ΔH is -6.23 ± 0.05 kcal/mol.

What about the “−TΔS” value [2] of the same compound?
The value was -3.1 ± 0.7 kcal/mol.

And the “n (stoichiometry)” value [2]?
The value was 0.964 ± 0.005.

And the Kd [5]?
The Kd was 0.106 ± 0.01 µM.

What about the “n (stoichiometry)” value [5] of the same compound?
Its value is 1.050 ± 0.004.

What about the ΔG [5] of the same compound?
The ΔG was -9.51 ± 0.05 kcal/mol.

What about the ΔH [5] of the same compound?
The ΔH was -5.19 ± 0.03 kcal/mol.

And the “−TΔS” value [5]?
The value was -4.3 ± 0.1 kcal/mol.

And the “depletion/degradation of VHL (pVHL30)” value [3]?
Its value is “unable to induce degradation of VHL”.

And the “elution volume of small peak” value [4]?
Its value is 13.5 mL.

And the “shift of VCB peak / ternary complex formation” value [4]?
Its value is “no shift”.

With `CC(=O)N[C@H](C(=O)N1C[C@H](O)C[C@H]1C(=O)NCc1ccc(-c2scnc2C)cc1OCCOCCOCCOCCOCCOc1cc(-c2scnc2C)ccc1CNC(=O)[C@@H]1C[C@@H](O)CN1C(=O)[C@@H](NC(C)=O)C(C)(C)C)C(C)(C)C` [CMP106, (2S,2′S,4R,4′R)—N,N′-((((3,6,9,12-tetraoxatetradecane-1,14-diyl)bis(oxy))bis(4-(4-methylthiazol-5-yl)-2,1-phenylene))bis(methylene))bis(1-((S)-2-acetamido-3,3-dimethylbutanoyl)-4-hydroxypyrrolidine-2-carboxamide)] as the compound, how does the Kd [2] read?
The Kd was 0.111 ± 0.008 µM.

And the ΔG [2]?
The ΔG was -9.5 kcal/mol.

What about the ΔH [2] of the same compound?
The ΔH was -12.6 ± 0.1 kcal/mol.

What about the “α (cooperativity/avidity)” value [2] of the same compound?
Its value is 1.7.

What about the “−TΔS” value [2] of the same compound?
The value was 3.1 kcal/mol.

What about the “n (stoichiometry)” value [2] of the same compound?
Its value is 0.535 ± 0.004.

Which results are given for `CC(=O)N[C@H](C(=O)N1C[C@H](O)C[C@H]1C(=O)NCc1ccc(-c2scnc2C)cc1OCCOCCOCCOCCOCCOCC(=O)N[C@H](C(=O)N1C[C@H](O)C[C@H]1C(=O)NCc1ccc(-c2scnc2C)cc1)C(C)(C)C)C(C)(C)C` [CMP112, (2S,4R)-1-((S)-2-acetamido-3,3-dimethylbutanoyl)-4-hydroxy-N-(2-(((S)-19-((2S,4R)-4-hydroxy-2-((4-(4-methylthiazol-5-yl)benzyl)carbamoyl)pyrrolidine-1-carbonyl)-20,20-dimethyl-17-oxo-3,6,9,12,15-pentaoxa-18-azahenicosyl)oxy)-4-(4-methylthiazol-5-yl)benzyl)pyrrolidine-2-carboxamide]?
Kd [2]: 0.235 ± 0.022 µM; ΔG [2]: -9.1 kcal/mol; ΔH [2]: -14.8 ± 0.2 kcal/mol; α (cooperativity/avidity) [2]: 0.8; −TΔS [2]: 5.8 kcal/mol; n (stoichiometry) [2]: 0.498 ± 0.006
